Test results reported in ChEMBL document CHEMBL1124105, “Analogues of gamma-hydroxybutyric acid. Synthesis and binding studies” (J Med Chem, 1988).
Activity calls are given as the source filed them. The rule behind the calls is not given here.

Experiments:
[1] = biological target: T1, Gamma-hydroxybutyrate receptor (Rattus norvegicus) (UniProt Q6RY99); details: at 1 µM
T1 sequence (whole entry): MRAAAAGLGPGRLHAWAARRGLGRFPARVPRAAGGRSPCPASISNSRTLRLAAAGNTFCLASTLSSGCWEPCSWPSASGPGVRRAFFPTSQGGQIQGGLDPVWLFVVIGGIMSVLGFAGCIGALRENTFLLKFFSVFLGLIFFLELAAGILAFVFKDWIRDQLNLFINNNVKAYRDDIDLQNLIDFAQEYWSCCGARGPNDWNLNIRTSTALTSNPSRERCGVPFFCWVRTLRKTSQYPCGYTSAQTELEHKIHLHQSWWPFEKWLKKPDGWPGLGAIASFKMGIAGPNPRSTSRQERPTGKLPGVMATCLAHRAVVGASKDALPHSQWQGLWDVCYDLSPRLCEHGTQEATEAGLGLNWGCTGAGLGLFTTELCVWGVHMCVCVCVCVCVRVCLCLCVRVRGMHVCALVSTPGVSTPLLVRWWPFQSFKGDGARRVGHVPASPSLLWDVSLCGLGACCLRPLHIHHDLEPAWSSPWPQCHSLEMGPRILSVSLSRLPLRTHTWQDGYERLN

[2] = biological target: T1, Gamma-hydroxybutyrate receptor (Rattus norvegicus); details: at 10 µM
[3] = biological target: T1, Gamma-hydroxybutyrate receptor (Rattus norvegicus); details: at 10 µM; remark: listed apart in the source

Q: Which inhibition [1] does the source give for `C/C(=C\C(=O)O)CO` here?
A: 11%

Q: What about the inhibition [2] of the same compound?
A: inactive

Q: And the inhibition [3]?
A: 55%

Q: `O=C1C=CCO1` was tested. Which inhibition [2] did it give?
A: inactive

Q: What does the source list for `O=C(O)CCC(O)c1ccccc1` (configuration not stated)?
A: inhibition [1]: 13%; inhibition [3]: 56%

Q: With `O=C1CCCO1` as the compound, how does the inhibition [2] read?
A: inactive

Q: For `OCCCCO`, which inhibition [2] is on record?
A: inactive

Q: With `O=C(O)CC(CO)c1ccccc1` (configuration not stated) as the compound, how does the inhibition [2] read?
A: inactive

Q: How did the inhibition [2] turn out when `NCCCC(=O)O` was run?
A: inactive

Q: `O=C(O)CCCCO` was tested. Which inhibition [1] did it give?
A: 22%

Q: What about the inhibition [3] of the same compound?
A: 53%

Q: With `O=C(O)/C=C(/CO)c1ccccc1` as the compound, how does the inhibition [1] read?
A: 21%

Q: And the inhibition [3]?
A: 34%

Q: How did the inhibition [2] turn out when `O=S(=O)(O)CCCCO` was run?
A: inactive

Q: With `CCC(CO)CC(=O)O` (configuration not stated) as the compound, how does the inhibition [3] read?
A: 43%

Q: Which results are given for `O=C(O)/C=C/C(O)c1ccccc1` (configuration not stated)?
A: inhibition [1]: 39%; inhibition [3]: 70%

Q: With `CC(O)CCC(=O)O` (configuration not stated) as the compound, how does the inhibition [1] read?
A: 12%

Q: And the inhibition [3]?
A: 63%

Q: Which inhibition [2] does the source give for `O=S(=O)([O-])CCO.[Na+]` here?
A: inactive

Q: For `O=C(O)CCCO`, which inhibition [1] is on record?
A: 35%

Q: What about the inhibition [3] of the same compound?
A: 55%

Q: With `O=C(O)CC(CO)Cc1ccccc1` (configuration not stated) as the compound, how does the inhibition [2] read?
A: inactive

Q: For `CC(CCO)C(=O)O` (configuration not stated), which inhibition [3] is on record?
A: 24%

Q: Which inhibition [3] does the source give for `CC(CO)CC(=O)O` (configuration not stated) here?
A: 59%

Q: For `O=S(=O)(O)CCCO`, which inhibition [2] is on record?
A: inactive

Q: How did the inhibition [2] turn out when `O=C(O)C(CCO)c1ccccc1` (configuration not stated) was run?
A: inactive

Q: What does the source list for `O=C(O)/C=C/C(O)C1CCCCC1` (configuration not stated)?
A: inhibition [1]: 13%; inhibition [3]: 46%

Q: How did the inhibition [2] turn out when `C=C(C)[C@@H]1[C@H]2OC(=O)[C@@H]1[C@]1(O)C[C@H]3OC34C(=O)O[C@H]2[C@@]41C.CC(C)(O)[C@@H]1[C@H]2OC(=O)[C@@H]1[C@]1(O)C[C@H]3OC34C(=O)O[C@H]2[C@@]41C` (some centres not stated) was run?
A: inactive

Q: For `O=C(O)/C=C/CO`, which inhibition [1] is on record?
A: 44%

Q: What about the inhibition [3] of the same compound?
A: 64%

Q: Which inhibition [2] does the source give for `O=C(O)CCO` here?
A: inactive

Q: How did the inhibition [2] turn out when `CC(C)C(CO)CC(=O)O` (configuration not stated) was run?
A: inactive

Q: `CCCC(CO)CC(=O)O` (configuration not stated) was tested. Which inhibition [3] did it give?
A: 5%

Q: `CC(CO)C(C)C(=O)O` (configuration not stated) was tested. Which inhibition [2] did it give?
A: inactive
